In the NIST ThermoML archive (doi:10.1021/je0342116) one finds activity coefficient data, which are given here for 8 compounds.

A short description of the data set: activity coefficient (dimensionless); of the first substance listed, at infinite dilution; xn = mol fraction of the nth substance listed. To be noted: Liquid, Chromatography, x1 = 0.

± gives the expanded uncertainty stated by the source.

`C/C=C/C` [(E)-2-butene] + CC(C)O: the activity coefficient by setting is: (249.96 K) 4.3 ± 0.2; (270.04 K) 4.3 ± 0.2; (290 K) 4.2 ± 0.2; (310 K) 4.1 ± 0.2; (330 K) 3.9 ± 0.2.

Consider `CCCC` [butane] + CC(C)O, for which the activity coefficient (249.97 K) came out at 5.2 ± 0.2; the activity coefficient (270.03 K) stood at 5.1 ± 0.2; the activity coefficient (290 K) is 5.1 ± 0.2; the activity coefficient (310 K) turned out to be 4.9 ± 0.2; the activity coefficient (330 K) was 4.6 ± 0.2.

Consider `C=CC` [propene] + CC(C)O, for which the activity coefficient is, setting by setting: (249.96 K) 3.8 ± 0.2; (270.04 K) 3.7 ± 0.2; (290 K) 3.7 ± 0.2; (310 K) 3.6 ± 0.2; (330 K) 3.4 ± 0.2.

With `C=CCC` [1-butene] + CC(C)O, the activity coefficient was 4.4 ± 0.2 (249.97 K); 4.4 ± 0.2 (270.03 K); 4.3 ± 0.2 (290 K); 4.1 ± 0.2 (310 K); 3.9 ± 0.2 (330 K).

On to `CC(C)C` [2-methylpropane] + CC(C)O, for which the activity coefficient came out at 5.4 ± 0.3 (249.96 K); 5.3 ± 0.2 (270.04 K); 5.2 ± 0.2 (290 K); 5 ± 0.2 (310 K); 4.7 ± 0.2 (330 K).

In the case of `CCC` [propane] + CC(C)O, the activity coefficient runs as follows: (249.96 K) 4.5 ± 0.2; (270.04 K) 4.5 ± 0.2; (290 K) 4.4 ± 0.2; (310 K) 4.3 ± 0.2; (330 K) 4.2 ± 0.2.

On to `C=CC=C` [1,3-butadiene] + CC(C)O, for which the activity coefficient is, setting by setting: (249.97 K) 3.9 ± 0.2; (270.03 K) 3.8 ± 0.2; (290 K) 3.7 ± 0.2; (310 K) 3.5 ± 0.2; (330 K) 3.3 ± 0.2.

`C=C(C)C` [2-methylpropene] + CC(C)O: the activity coefficient (249.97 K) came out at 4.4 ± 0.2; the activity coefficient (270.03 K) came to 4.3 ± 0.2; the activity coefficient (290 K) was 4.2 ± 0.2; the activity coefficient (310 K) came to 4 ± 0.2; the activity coefficient (330 K) turned out to be 3.8 ± 0.2.
